From article PMC13267113 (npj Drug Discovery, 2025)
Read-outs that look alike come from different tables or passages of the source.

How the values were obtained:
HepG2 (human, liver) = assay: MTT cytotoxicity HepG2; format: cell-based; settings: 72 h, n = 3
Protocol: (§1) All cell types were cultivated at 37 °C with 5% CO2. HepG2, HEK293, HCT116, CHO-K1, HeLa-CCL-2 and Huh-7.5 were purchased from ATCC. The respective cell media (Gibco) were supplemented with 10% FBS (Gibco) before usage. Cells were used between passages #5 and #30. To obtain biological repeats, cells were split separately for at least two passages.
(§2) Cells were washed with PBS and 0.5 mL trypsin was added. Afterwards, cells were incubated for 5 min before adding 10 mL medium containing 10% FBS. Per well, 120 µL cell suspension (5 × 10^4 cells/mL) was seeded in transparent 96-well cell bind plates and incubated for 2 h (37 °C, 5% CO2). A dilution series (1:3) of test compounds was prepared in respective media containing 10% FBS and added (60 µL) to the prepared cell plate. Cells were incubated for a further 72 h (37 °C, 5% CO2). Next, 20 µL MTT (5 mg/mL in PBS) was added to each well and incubated for 2 h (37 °C, 5% CO2). The wells were emptied and 100 µL isopropanol/10 N HCl (1000:4) per well was added.
(§3) The plates were analyzed by measuring the absorbance at 570 nm (plate reader Infinite® 200 Pro, Tecan). After normalization of data to the respective solvent controls, the calculated percentage of growth inhibition was plotted using GraphPad Prism software (version 10.0.2).

HEK293 (human, kidney) = assay: MTT cytotoxicity HEK293; format: cell-based
Protocol: as §1, §2, §3

HCT116 (human, colon) = assay: MTT cytotoxicity HCT116; format: cell-based; settings: HCT-116, 72 h, n = 3
Protocol: as §1, §2, §3

CHO-K1 (hamster, ovary) = assay: MTT cytotoxicity CHO-K1; format: cell-based; settings: CHO-K1, 72 h, n = 3
Protocol: as §1, §2, §3

HeLa (human, cervix) = assay: MTT cytotoxicity HeLa; format: cell-based; settings: 72 h, n = 3
Protocol: as §1, §2, §3

[1] = test system: U2OS (human, osteosarcoma); assay: MTT cytotoxicity U2OS; format: cell-based; settings: 72 h, n = 3
Protocol: as §2, §3

Huh-7.5 (human, liver) = assay: MTT cytotoxicity Huh-7.5; format: cell-based; settings: Huh7.5, 72 h, n = 3
Protocol: as §1, §2, §3

U-2 OS cells = assay: Mitochondrial superoxide formation (MitoSOX Red); format: cell-based, human; settings: n = 6
Protocol: CYS was tested for its potential to induce oxidative stress in U-2 OS cells. Therefore, 120 µL of a cell suspension in McCoy’s (+10% FBS) containing 5 × 10^4 cells/mL were seeded into black 96-well imaging plate (BD Falcon). The plates were incubated for two days (37 °C, 5% CO2) until the cells reached approximately 70% confluence. Subsequently, the cells were washed with HBSS buffer, prior to adding CYS (20 µM) and the ROS inducer menadione (50 µM) as positive control, along with the staining solution (HBSS, calcium, magnesium, 5 µM MitoSOX red and 10 µg/mL Hoechst (Thermo)). To check for ROS protective properties, menadione (50 µM) was added directly to the staining solution. […] Afterwards, the cells were washed twice with HBSS. The cells were imaged using an automated fluorescence microscope (Celldiscoverer 7, Zeiss) (excitation: […]) to analyze the fluorescence intensity of the superoxide tracker MitoSOX red. The experiment was carried out with six replicates per condition. Quantification was done by high-content image analysis using the ZEN software (version 3.4, blue edition, Zeiss). Data presentation was done using GraphPad Prism (version 10.0.3) with ordinary one-way ANOVA including multiple comparisons to the control group for statistical analysis of the sample without ROS induction via menadione in the staining solution. Multiple unpaired t test was used to compare samples for ROS protective properties, which were incubated with menadione in the staining solution.

[2] = Metabolic stability in mouse hepatocytes; format: in vitro ADME; settings: mouse, pooled mouse hepatocytes; 1 μM, 0.25 × 10^6 cells/mL; read-out: Mouse Hepatocytes t1/2
Protocol: For the evaluation of combined phase I and phase II metabolic stability, the compound (1 μM) was incubated with 0.25 × 10^6 cells/mL of pooled mouse hepatocytes (Xenotech, Kansas City, USA). Cells were thawed in Leibovitz’s L-15 medium without phenol red (ThermoFisher Scientific, Waltham, USA). Briefly, cells were transferred into 50 mL of medium, followed by centrifugation at 55 g for 6 min. Supernatant was discarded, and the cell count was determined after gently resuspending the cell pellet in 1mL of medium. Hepatocytes were diluted to 0.5 × 10^6 cells/mL and incubated at 37 °C, 700 rpm for 10 min, to achieve the desired final cell count after addition of an equal volume of test compounds in medium, leading to a final test concentration of 1 µM at 1% DMSO. […] For the determination of metabolism in the presence of cobicistat, this drug was added together with test compounds in the desired concentration range. The metabolic stability of testosterone, verapamil, ketoconazole and 7-hydroxycoumarine were determined in parallel to confirm the enzymatic activity of mouse hepatocytes. […] Concentration of the remaining test compound at the different time points was analyzed by HPLC-MS/MS (Vanquish Flex coupled to a TSQ Altis Plus, Thermo Fisher, Dreieich, Germany) and used to determine half-life (t1/2). Intrinsic clearance was calculated as follows:2 CLintµL/min×10^6cells=Incubation volumeµL×ln(2)/Cells in incubation mixture[10^6]×t1/2
For metabolite identification studies, test compounds were incubated at 10 µM final concentration and samples were analyzed using HPLC-HRMS (Ultimate 3000 coupled to a Q Exactive Focus, Thermo Fisher, Dreieich, Germany). […] Blank samples using DMSO were run in parallel for background subtraction. Sample processing for metabolite identification was performed using Compound Discoverer 3.2 (Thermo Fisher, Dreieich, Germany). Metabolites were identified based on mass shifts and feasibility of the metabolic reaction, also in view of MS peak intensities over time.

E. coli gyrase = settings: cited from earlier work
CHO-K1 cells [3] = test system: CHO-K1 cells
[4] = test system: zebrafish embryos [Tg(fabp10a:DsRed; elaA:EGFP)]; assay: In vivo hepatotoxicity in zebrafish embryos; settings: soaking 3 to 5 dpf; valproic acid 20, 40 µg/mL
Protocol: (§4) Handling of adult zebrafish and experiments with zebrafish embryos were performed in accordance with the EU directive 2010/63/EU and the German Animal Welfare Act (§11 Abs. 1 TierSchG). An automatic aquatic eco-system (PENTAIR, Apoka, UK) was used for zebrafish housing. Adult zebrafish were mated pairwise in our zebrafish facility after one night in the mating cages (light/dark cycle: 14 h/10 h). The eggs were collected after 2 h of mating and placed in a petri dish with fish water (pH 7.36 ± 0.08, conductivity: 800 ± 50 µs). The eggs were washed with 0.3x Danieau´s medium (17 mM NaCl, 0.2 mM KCl, 0.12 mM MgSO4, 0.18 mM Ca(NO3)2, 1.5 mM HEPES, pH 7.1–7.3, and 1.2 µM methylene blue). 300 eggs were placed per Petri dish and stored in the incubator at 28 °C overnight. […]
Zebrafish embryos [Tg(fabp10a:DsRed; elaA:EGFP)] were prepared as described above. […] After 48 h treatment, the embryos were checked via a fluorescence stereomicroscope (M205 FA, Leica) with attention to liver degeneration. Fluorescence images were taken after anesthetizing the embryos with tricaine (40 µg/mL) and placing them laterally (excitation: 558 nm, emission 583 nm, 35× magnification). […] The liver size was calculated using ImageJ software (format: 8 bit, threshold: 40–255, binary, particle size: 10.0-infinite). […] The relative liver sizes of treated embryos were calculated accordingly and normalized to the control group. […]

CHO-K1 cells [5] = assay: Micronucleus test; settings: 24 h; mitomycin C 0.05 µM, doxorubicin 0.05 µM, etoposide 0.25 µM; CYS 20 µM, 100 µM for Cysto-180
zebrafish embryos = assay: In vivo cardiotoxicity in zebrafish embryos; settings: treated 2 to 3 dpf; CYS 20 µM; terfenadine 10, 20 µM
Protocol: as §4, with “overnight. 24 h post-mating, the unfertilized eggs were discarded. The 0.3x Danieau´s media in the petri dishes was replaced every 24 h and embryos with developmental issues were euthanized using ice water.” for “overnight.”
Embryos were prepared as described above. […] Afterwards, embryos were anesthetized with tricaine added to the media (40 µg/mL, 0.004% (w/v)) and videos were recorded using a stereomicroscope (1.25 × magnification) (Stemi 508, Zeiss) with Media Recorder (version 4.0) and analyzed via DanioScope software (version 1.2.208, Noldus). […]

`CC(C)Oc1c(NC(=O)c2ccc(NC(=O)[C@H](CC(N)=O)NC(=O)c3ccc(NC(=O)c4ccc(C#N)cc4)cc3)cc2)ccc(C(=O)Nc2ccc(C(=O)O)cc2)c1O` [CN-DM-861] gave an IC50 (HepG2 (human, liver)) of over 20000 nM, an IC50 (HEK293 (human, kidney); HEK293, 72 h, read-out: IC50 HEK293 (human, kidney)) of over 20000 nM and an IC50 (HCT116 (human, colon)) of over 20000 nM. For the same compound, the IC50 (CHO-K1 (hamster, ovary)) was over 20000 nM, the IC50 (HeLa (human, cervix)) was over 37000 nM and the IC50 [1] was over 20000 nM. The IC50 (Huh-7.5 (human, liver)) was over 20000 nM, the “basal superoxide radical levels vs DMSO control” value (U-2 OS cells; 20 µM, MitoSOX Red, no menadione) was “no ROS induction at the maximum soluble concentration” and the “menadione-induced superoxide formation on co-treatment” value (U-2 OS cells; CYS 20 µM + menadione 50 µM) was “no significant increase of superoxide”. The half-life at 1 µM [2] was 1.57 ± 0.25 h and the IC50 (E. coli gyrase) was […].

For `COc1cccc2c1C(=O)c1c(O)c3c(c(O)c1C2=O)C[C@@](O)(C(=O)CO)C[C@@H]3O[C@H]1C[C@H](N)[C@H](O)[C@H](C)O1` [Doxorubicin, doxorubicin, reference compound], the IC50 (HepG2 (human, liver)) was 480 ± 130 nM, the IC50 (HEK293 (human, kidney); HEK293, MTT, 72 h, n = 3, read-out: IC50 HEK293 (human, kidney)) was 160 ± 40 nM and the IC50 (HCT116 (human, colon)) was 240 ± 20 nM. For the same compound, the IC50 (CHO-K1 (hamster, ovary)) was 100 ± 10 nM and the micronuclei/nuclear bud formation (CHO-K1 cells [3]) was “high amount of nuclear bud/micronuclei formation”.

With `CCCC(CCC)C(=O)O` [Valproic acid, valproic acid] the liver size [4] was “significant liver size reduction”.

For `CO[C@@]12[C@H](COC(N)=O)C3=C(C(=O)C(C)=C(N)C3=O)N1C[C@@H]1N[C@@H]12` [mitomycin C], the micronuclei/nuclear bud formation (CHO-K1 cells [5]) was “high amount of nuclear bud/micronuclei formation”.

With `CC(C)(C)c1ccc(C(O)CCCN2CCC(C(O)(c3ccccc3)c3ccccc3)CC2)cc1` (centres unmarked) [terfenadine] the heartbeat rate (zebrafish embryos) was “significant and concentration-dependent decrease of beats per minute” and the pericardial area (zebrafish embryos) was “significant, concentration-dependent increase in pericardial area”.
